Starred links: 1 amine or outer side, 2 acyl side, 3 side chain; linkers in the order of their positions; H or OH if unused. Non-standard residues stand in square brackets, D forms with d. Residues, ends and D or L forms follow the SMILES beside them. Groups on a side chain read outwards from the residue. *: point of attachment. C20 diacid = O=C(O)CCCCCCCCCCCCCCCCCCC(=O)*; αMePhe(2-F) = C[C@](N)(Cc1ccccc1F)C(=O)O; γGlu = O=C(O)[C@H](CCC(=O)[*:2])N[*:1]; αMeL = CC(C)C[C@](C)(N)C(=O)O; AEEA = NCCOCCOCC(=O)O; Aib = CC(C)(N)C(=O)O
Experiments:
[1] = target: T1, Human GCG R (Homo sapiens, UniProt P47871); test: cAMP (HTRF) activity in HEK-293 cells stably overexpressing human GCG receptor; assay type: cell-based; details: EC50 of human GCG / EC50 of compound
T1 construct: expressed in transfected cells; host or cells: HEK-293
T1 sequence (P47871 26-477): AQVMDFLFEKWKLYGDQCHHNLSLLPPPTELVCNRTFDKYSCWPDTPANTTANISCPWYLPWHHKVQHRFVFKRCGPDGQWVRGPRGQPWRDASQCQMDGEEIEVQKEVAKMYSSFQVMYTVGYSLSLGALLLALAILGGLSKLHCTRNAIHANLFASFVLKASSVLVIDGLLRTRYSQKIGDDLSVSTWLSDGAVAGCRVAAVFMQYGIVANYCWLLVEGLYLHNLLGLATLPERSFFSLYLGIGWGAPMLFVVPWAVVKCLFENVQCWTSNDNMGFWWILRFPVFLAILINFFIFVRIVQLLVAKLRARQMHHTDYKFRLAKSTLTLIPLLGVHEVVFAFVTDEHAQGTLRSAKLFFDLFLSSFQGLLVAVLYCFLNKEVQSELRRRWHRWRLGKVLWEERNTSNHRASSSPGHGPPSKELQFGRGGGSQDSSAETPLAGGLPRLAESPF
Outline: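 Cells resuspended in HBSS are incubated with compound for 60 min at room temperature, then with HTRF cAMP detection reagent for a further 60 min. Concentration-response fits give agonist EC50 values in nM.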

[2] = test system: human primary liver cells; assay type: cell-based; details: for Rel. A (Relative Activity) on human primary liver cells: relative to GCG
Outline: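 Human primary hepatocytes, thawed at 37° C and resuspended in HBSS, exposed to compound for 60 min at room temperature. Detection reagent then added for 60 min before cAMP readout.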

[3] = test system: RIN-m5F cells; assay type: cell-based, rat; details: for Rel. A (Relative Activity) on RIN-m5F: relative to GLP-1(7-37)
Outline: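 cAMP production measured in RIN-m5F cells resuspended in HBSS; compounds incubated 60 min at room temperature, then detection reagent added for a further 60 min before read-out.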

Human GCG R Rel. A (Relative Activity) [1] [%] | SMILES | EC50 [2] [nM] | Rel. A (Relative Activity) on human primary liver cells [2] [%] | EC50 [3] [nM] | Rel. A (Relative Activity) on RIN-m5F [3] [%]
83.82 | CC[C@H](C)[C@H](NC(=O)[C@H](Cc1ccccc1)NC(=O)[C@H](C)NC(=O)C(C)(C)NC(=O)[C@H](CCC(N)=O)NC(=O)[C@H](C)NC(=O)[C@H](CCCCNC(=O)COCCOCCNC(=O)COCCOCCNC(=O)CC[C@H](NC(=O)CCCCCCCCCCCCCCCCCCC(=O)O)C(=O)O)NC(=O)[C@H](CCCCN)NC(=O)[C@H](CC(=O)O)NC(=O)[C@H](CC(C)C)NC(=O)[C@](C)(CC(C)C)NC(=O)[C@@H](NC(=O)[C@H](CO)NC(=O)[C@H](Cc1ccc(O)cc1)NC(=O)[C@H](CC(=O)O)NC(=O)[C@H](CO)NC(=O)[C@@H](NC(=O)[C@](C)(Cc1ccccc1F)NC(=O)[C@@H](NC(=O)CNC(=O)[C@H](CCC(N)=O)NC(=O)C(C)(C)NC(=O)[C@@H](N)Cc1ccc(O)cc1)[C@@H](C)O)[C@@H](C)O)[C@@H](C)CC)C(=O)N[C@@H](CCC(=O)O)C(=O)N[C@@H](Cc1ccccc1)C(=O)N[C@@H](CC(C)C)C(=O)N[C@@H](CC(C)C)C(=O)N[C@@H](CCC(=O)O)C(=O)N[C@H](C(=O)NCC(=O)N1CCC[C@H]1C(=O)N[C@@H](CO)C(=O)N[C@@H](CO)C(=O)NC(C)(C)C(=O)N[C@@H](Cc1c[nH]cn1)C(=O)N1CCC[C@H]1C(=O)N1CCC[C@H]1C(=O)N1CCC[C@H]1C(=O)N[C@@H](CO)C(N)=O)[C@@H](C)O [Compound 38] (H-Y[Aib]QGT[αMePhe(2-F)]TSDYSI[αMeL]LDKK([AEEA-AEEA-γGlu-C20 diacid])AQ[Aib]AFIEFLLETGPSS[Aib]HPPPS-NH2; N-terminus assumed) | 0.899 | 432.81 | 0.173 | 596.53
 | CC[C@H](C)[C@H](NC(=O)[C@H](Cc1ccccc1)NC(=O)[C@H](C)NC(=O)C(C)(C)NC(=O)[C@H](CCC(N)=O)NC(=O)[C@H](C)NC(=O)[C@H](CCCCNC(=O)COCCOCCNC(=O)COCCOCCNC(=O)CC[C@H](NC(=O)CCCCCCCCCCCCCCCCCCC(=O)O)C(=O)O)NC(=O)[C@H](CCCCN)NC(=O)[C@H](CC(=O)O)NC(=O)[C@H](CC(C)C)NC(=O)[C@H](Cc1ccccc1)NC(=O)[C@@H](NC(=O)[C@H](CO)NC(=O)[C@H](Cc1ccc(O)cc1)NC(=O)[C@H](CC(=O)O)NC(=O)[C@H](CO)NC(=O)[C@@H](NC(=O)[C@](C)(Cc1ccccc1F)NC(=O)[C@@H](NC(=O)CNC(=O)[C@H](CCC(N)=O)NC(=O)C(C)(C)NC(=O)[C@@H](N)Cc1ccc(O)cc1)[C@@H](C)O)[C@@H](C)O)[C@@H](C)CC)C(=O)N[C@@H](CCC(=O)O)C(=O)N[C@@H](Cc1ccc(O)cc1)C(=O)N[C@@H](CC(C)C)C(=O)N[C@@H](CC(C)C)C(=O)N[C@@H](CCC(=O)O)C(=O)NC(C)(C)C(=O)N[C@@H](Cc1c[nH]cn1)C(=O)N1CCC[C@H]1C(=O)N[C@@H](CO)C(=O)N[C@@H](CO)C(=O)NCC(=O)N[C@@H](C)C(=O)N1CCC[C@H]1C(=O)N1CCC[C@H]1C(=O)N1CCC[C@H]1C(=O)N[C@@H](CO)C(N)=O [Compound 18] | 0.622 | 625.56 | 0.214 | 482.24
